Test results published in US10251408B2, “Catechin function enhancement method” (KYUSHU UNIVERSITY, NATIONAL UNIVERSITY CORPORATION, priority 2014, dated 2019).

Test system: Human multiple myeloma cell line U266
Assay: Cancer cell apoptosis induction, Annexin V/PI flow cytometry
Format: cell-based
Conditions: EGCG and eriodictyol 5 μM each, 96 hours, FIG. 1
Experimental: Human multiple myeloma cell line U266 was subcultured and maintained in RPMI 1640 medium supplemented with 10% fetal bovine serum (FCS) under conditions of 37° C. and water vapor-saturated 5% CO2. The cells were maintained in the logarithmic growth phase. The RPMI 1640 medium used for culture was prepared as follows: per liter of ultrapure water, RPMI 1640 medium (10.4 g), HEPES (2.38 g), injectable penicillin G potassium (100,000 units), streptomycin sulfate injectable (100 mg) and NaHCO3 (2.0 g) were suspended and then filter-sterilized.
Then, the RPMI 1640 medium was supplemented with FCS and used for cell culture. To examine the apoptosis induction effect on human multiple myeloma cell line U266 produced upon combination of EGCG and eriodictyol, double staining was performed with Annexin V and PI. For use as a propidium iodide (PI) stain solution, PI (Sigma) was suspended in PBS at a concentration of 50 μg/mL. […]
Then, the fully suspended cell culture was centrifuged at 300×g for 5 minutes to remove the supernatant, and then suspended with the Annexin V binding buffer, counted with a hemacytometer, centrifuged again at 300×g for 5 minutes and then suspended with the Annexin V binding buffer. […] After compensation, the Annexin V Alexa Fluor 488 conjugate was measured at FL 1 and cells determined to be positive were regarded as apoptotic cells. […]

## O=C1C[C@@H](c2ccc(O)c(O)c2)Oc2cc(O)cc(O)c21 [eriodictyol]
  effect on the cancer cell apoptosis induction effect of EGCG (Annexin V positive cells): enhance the apoptosis induction effect of EGCG
